Here are results for one compound from patent US20230012936A1, “COMBINATION THERAPY USING GLUCAGON AND GLP-1 CO-AGONISTS FOR THE TREATMENT OF OBESITY” (MEDIMMUNE, LLC, priority 2019, published 2023).

The nature of one data set: clinical. The conditions noted are these: for Cmax: Dapagliflozin mean Cmax. How it is done: The Cmax and the corresponding tmax were identified from the observed data. Log-linear regression of the terminal phase yielded the terminal rate constant (λz). The area under the plasma concentration time-curve during the dosing interval (AUCτ) was calculated by the log-linear trapezoidal rule. The area under the curve to infinity (AUC0-inf) was calculated as the sum of AUC(o-t) and Ct/z, where Ct is the observed plasma concentration obtained from the log-linear regression analysis of the last quantifiable time point and z is the terminal phase rate constant. Clearance (CL/F) was determined by dose/AUC0-inf, and the terminal half-life (t1/2) was calculated as 0.693/λz.

For data set [1] the following is noted: 10 mg/day PO, cited from earlier work.
Data set [2] in a line: Safety: adverse events, laboratory values, vital signs, ECG. It is filed as in vivo, human. The conditions noted are these: as judged by the investigator. How it is done:
Blood samples were collected to evaluate anti-drug antibody (ADA) response to cotadutide. Serum samples were evaluated for ADA using a validated immunoassay. Adverse events (AEs) and serious adverse events (SAEs) were collected from the time of informed consent throughout the treatment period and including the follow-up period. AEs and SAEs were graded by severity and relationship to investigational product and SAEs were assessed for relationship to protocol procedures.

The structures appear in SMILES notation.

The term half-life denotes the time needed for the level to fall by half in the phase considered. By Cmax is commonly meant the maximum level reached in the sampled fluid or tissue. On to `CCOc1ccc(Cc2cc([C@@H]3O[C@H](CO)[C@@H](O)[C@H](O)[C@H]3O)ccc2Cl)cc1` [dapagliflozin], for which the “Impact of cotadutide on dapagliflozin oral absorption” value in “clinical” (dapagliflozin 10 mg/day PO) was “marginal impact”. The compound also gave a half-life in “clinical” (human, plasma, oral, 10 mg/day) of around 480 min. Besides, the Cmax turned out to be 117 ng/mL in “clinical” (human, plasma, oral, cotadutide group, Day −1 (cotadutide not yet co-administered)); 92 ng/mL in the data set “clinical” (human, plasma, oral, group receiving dapagliflozin and placebo, Day 7); 95.6 ng/mL in the data set “clinical” (human, plasma, oral, group receiving dapagliflozin and placebo, Day 14); 112 ng/mL in the data set “clinical” (human, plasma, oral, group receiving dapagliflozin and placebo, Day 28); 110 ng/mL in “clinical” (human, plasma, oral, group receiving dapagliflozin and placebo, Day −1); 84.4 ng/mL in “clinical” (human, plasma, oral, in the presence of cotadutide, Day 7). The maximum concentration (Cmax) in the data set “clinical” (human, plasma, oral, in the presence of cotadutide, Day 14) turned out to be 61.1 ng/mL; in the data set “clinical” (human, plasma, oral, in the presence of cotadutide, Day 28), 94.2 ng/mL. Moreover, in data set [1] (Dapagliflozin NDA 202293), the “Dapagliflozin Cmax (literature)” value was 120 ng/mL. Further, in data set [1] (Dapagliflozin NDA 202293), the “Dapagliflozin tmax (literature)” value was 1 h. In data set [1] (literature data), the “Dapagliflozin half-life (literature)” value is 15 h. Moreover, the “Incidence of dapagliflozin-related TEAEs, cotadutide group” value in data set [2] is on record as 4.0%. Further, the “Incidence of dapagliflozin-related TEAEs, placebo group” value in data set [2] is on record as 8.3%.
